Source: EP1818052A1 (Acacia Pharma Limited, priority 2004, dated 2006)
Values joined by “and” are separate entries in the source; they are usually repeats but may differ in a detail not shown here. Identical values can stand only once. Like-named read-outs stand apart in the source and are kept apart here.

Legend:
isolated EDL muscles [1] = experiment: Protein synthesis rate in incubated isolated EDL muscles; format: cell-based, rats; settings: for Rate of protein synthesis: EDL muscles from control rats, 10^-4 M added to incubation medium; for increase of the rate of protein synthesis: incubated rat EDL muscles, 10^-4 M in medium
Method: (§1) The dissection and isolation of the EDL muscles was carried out under ketamine/xylazine mixture anesthesia. […] Such muscles are able to maintain normal ATP and phosphocreatine concentrations during a 3 hours incubation period. The muscles were incubated in a shaking-thermostatized water bath at 35 °C for 3 hours in 2 ml of Krebs-Henseleit physiological saline pH 7.4, containing 5 mM glucose and 20 mM HEPES. After the addition of the muscles to the vials, the incubation started at a shaking rate of 45 cycles/min.
Synthetic rates are expressed as nmols of [^14C]phenylalanine incorporated per g and 30 min. […]

isolated EDL muscles [2] = experiment: Proteolytic rate (tyrosine release) in incubated isolated EDL muscles; format: cell-based, rats; settings: for Proteolytic rate: EDL muscles from control rats, 10^-4 M added to incubation medium, cycloheximide 0.5 mM
Method: as §1
(§2) Total protein degradation by the isolated muscles was calculated as the rate of tyrosine released in the last two hours of incubation into the medium in the presence of 0.5 mM cycloheximide in order to block the reincorporation of tyrosine into tissue protein. Tyrosine was measured fluorimetrically. Statistical analysis of the data was performed by means of the Student's t test.

[3] = tested on: rats bearing Yoshida AH-130 ascites hepatoma; settings: rat, in vivo
[4] = tested on: rats bearing Yoshida AH-130 ascites hepatoma; settings: rat, in vivo; remark: listed apart in the source
isolated EDL muscles [5] = tested on: isolated EDL muscles
Method: as §1, §2
Rates were measured in presence of cycloheximide (0.5 mM) and are expressed as nmols/g and 2 hours. […]

[6] = tested on: rats bearing Yoshida AH-130 ascites hepatoma; settings: rat, in vivo; remark: listed apart in the source
Pax-7 and myogenin = experiment: Real time PCR of satellite cell activation markers in tibialis muscle after bupivacain damage; format: in vivo, rats; settings: bupivacain (0.5%) only (C + B)
From the text: PAx-7 and myogenin. Results are mean ± SEM for the number of animals indicated in parentheses.

[7] = tested on: tibialis muscles previously injected with bupivacain; experiment: Muscular damage by bupivacain: tibialis muscle weight; format: in vivo; settings: rats injected with bupivacain (0.5%) only (C+B)
From the text: Muscular regeneration is a process that implies satellite cells activation, muscle precursors cells that lie adjacent to the skeletal muscle fibers. The muscle was damaged by injecting bupivacain intramuscularly (0.5%). This compound, after muscle damage, stimulates muscular regeneration.
Muscle weights are expressed as mg/100 g of initial body weight. Results are mean ± SEM for the number of animals indicated in parentheses.

With `CC(C)(C)NCC(O)c1cc(Cl)c(N)c(Cl)c1` (stereo not shown) [clenbuterol] the “Rate of protein synthesis” value (isolated EDL muscles [1]) was 9.36 ± 0.5 (9) nmols of [14C]phenylalanine in, the “increase of the rate of protein synthesis” value (isolated EDL muscles [1]) was 20% and the Proteolytic rate (isolated EDL muscles [2]) was 176 ± 4.4 (8) nmols/g and 2 hours.

In the case of `COc1ccc(C[C@H](C)NC[C@@H](O)c2ccc(O)c(NC=O)c2)cc1` (racemic) [formoterol], the “Rate of protein synthesis” value (isolated EDL muscles [1]) is reported as 9.36 ± 0.3 (7) nmols of [14C]phenylalanine in, the “increase of the rate of protein synthesis” value (isolated EDL muscles [1]) is reported as 20% and the efficacy against cachexia [3] is reported as “effective against cachexia”. The “muscle weights: soleus” value [3] was 37 ± 1 mg/100 g of initial body weight and 33 ± 2 mg/100 g of initial body weight and 37 ± 2 mg/100 g of initial body weight, the carcass weigth [4] was 106 ± 1 g/100 g of initial body weight and 97 ± 1 g/100 g of initial body weight and the “effect on cancer cachexia” value [4] was “effective at low doses”. For the same molecule, the “muscle weigths: EDL” value [4] was 52 ± 1 t mg/100 g of initial body weight and 51 ± 2 t mg/100 g of initial body weight, the “muscle weigths: gastrocnemius” value [4] was 629 ± 9 mg/100 g of initial body weight and 598 ± 16 mg/100 g of initial body weight and the “muscle weigths: heart” value [4] was 431 ± 5 mg/100 g of initial body weight and 417 ± 18 mg/100 g of initial body weight. The “muscle weigths: soleus” value [4] was 43 ± 2 mg/100 g of initial body weight and 43 ± 1 mg/100 g of initial body weight, the “muscle weigths: tibialis” value [4] was 210 ± 5 t mg/100 g of initial body weight and 199 ± 4 t mg/100 g of initial body weight and the Proteolytic rate (isolated EDL muscles [5]; EDL muscles from rats given formoterol 2 mg/kg bw for six consecutive days, cycloheximide 0.5 mM) was 159 ± 5 (8) nmols/g and 2 hours. The “decrease of proteolytic rate” value (isolated EDL muscles [5]; EDL muscles from rats pre-treated for six consecutive days) was 12%, the Tumor cell number [6] was “not significantly affected” and the “adipose tissues weight: brown (interscapular)” value [6] was 278 ± 21 mg/100 g of initial body weight and 177 ± 11 † *** mg/100 g of initial body weight. For the same molecule, the “adipose tissues weight: white (dorsal)” value [6] was 759 ± 126 mg/100 g of initial body weight and 461 ± 49 mg/100 g of initial body weight, the “brown adipose tissue weight” value [6] was “increase” and the carcass weight [6] was 113 ± 11 g/100 g of initial body weight and 81 ± 1 g/100 g of initial body weight. For the same molecule, the “increase in EDL weight” value [6] was 32% and 16%, the “increase in cardiac muscle weight” value [6] was 21% and the “increase in heart weight” value [6] was 11%. For the same molecule, the “muscle weight: EDL” value [6] was 70 ± 3 mg/100 g of initial body weight and 50 ± 1 ††† *** mg/100 g of initial body weight, the “muscle weight: gastrocnemius” value [6] was 859 ± 38 mg/100 g of initial body weight and 639 ± 16 mg/100 g of initial body weight and the “muscle weight: heart” value [6] was 520 ± 15 mg/100 g of initial body weight and 426 ± 17 † ** mg/100 g of initial body weight. For the same molecule, the “muscle weight: soleus” value [6] was 55 ± 4 mg/100 g of initial body weight and 40 ± 1 mg/100 g of initial body weight, the “muscle weight: tibialis” value [6] was 275 ± 12 mg/100 g of initial body weight and 204 ± 4 †† *** mg/100 g of initial body weight and the “trophic action on soleus” value [6] was “not significantly affected”. For the same molecule, the tumor cell content [6] was 3403 ± 88 (5) millions of cells, the “white adipose tissue mass” value [6] was “tendency towards a decrease” and the Proteolytic rate (isolated EDL muscles [2]) was 180 ± 5.6 (8) nmols/g and 2 hours. The “decrease of the rate of protein degradation (release of tyrosine)” value (isolated EDL muscles [2]; isolated EDL muscles, 10^-4 M in medium) was 20%.

For `CCCCN1CCCCC1C(=O)Nc1c(C)cccc1C` (stereo not shown) [B, bupivacain], the Myogenin gene expression (Pax-7 and myogenin) was 142 ± 77, the Pax-7 gene expression (Pax-7 and myogenin) was 105 ± 11 and the “weight of tibialis muscles” value [7] was 265 ± 4 mg/100 g of initial body weight.
